Reference: article PMC6917776, “Discovery of a chemical probe for PRDM9” (Nature Communications, 2019)

What was measured:
HCC1806 = experiment: CelltiterGlo viability cell assay; assay type: cell-based
Protocol: (§1) Supplementary Figure 13. […] Viability of
(§2) (a) Multiple Myeloma lines and (b) Breast Cancer cell lines following 3 or 6 days treatment with […]
(§3) manufacturer’s instructions as described in the Supplementary methods. Data are normalized to DMSO control. N=3 biological replicates, +/- SEM. Source data are provided as a Source Data […]
(§4) CelltiterGlo viability cell assay
(§5) Cells were seeded in 96 well plates at per-well densities of 10000 (MDA-MB436, ATCC-HTB130), 15000 (8226, kind gift from Rodger Tiedemann, Princess Margaret Cancer Centre), […]
(§6) kind gift from Rodger Tiedemann, Princess Margaret Cancer Centre) and 50000 (CAL851, kind gift from Mathieu Lupien, Princess Margaret Cancer Centre) and were treated at increasing concentrations of compounds ranging from 0.01 μM to 30 μM and assessed for proliferation using CelltiterGlo (Promega) following manufacturer’s instructions, as readout on days 3 and 6 as indicated. All cell lines were mycoplasma negative, as determined by MycoAlert™ Mycoplasma Detection Kit(Lonza). […]

HCC1143 = experiment: CelltiterGlo viability cell assay; assay type: cell-based; details: HCC1143, 3 day
Protocol: as §1, §2, §3, §4, §5, §6

COc1cc(OC)cc(-c2noc(N3CCN(C)C4(CCN(c5ccccc5)CC4)C3)n2)c1 [MRK-740N]
viability Average (HCC1806; HCC1806, 3 day, 0.01 uM): 114.56 | viability Replicate 1 (HCC1806; HCC1806, 3 day, 0.01 uM): 108.66 | viability Replicate 2 (HCC1806; HCC1806, 3 day, 0.01 uM): 106.14 | viability Replicate 3 (HCC1806; HCC1806, 3 day, 0.01 uM): 128.88 | viability Average (HCC1806; HCC1806, 3 day, 0.03 uM): 112.72 | viability Replicate 1 (HCC1806; HCC1806, 3 day, 0.03 uM): 107.72 | viability Replicate 2 (HCC1806; HCC1806, 3 day, 0.03 uM): 100.89 | viability Replicate 3 (HCC1806; HCC1806, 3 day, 0.03 uM): 129.55 | viability Average (HCC1806; HCC1806, 3 day, 0.1 uM): 114.82 | viability Replicate 1 (HCC1806; HCC1806, 3 day, 0.1 uM): 110.69 | viability Replicate 2 (HCC1806; HCC1806, 3 day, 0.1 uM): 103.88 | viability Replicate 3 (HCC1806; HCC1806, 3 day, 0.1 uM): 129.88 | viability Average (HCC1806; HCC1806, 3 day, 0.3 uM): 114.56 | viability Replicate 1 (HCC1806; HCC1806, 3 day, 0.3 uM): 110.72 | viability Replicate 2 (HCC1806; HCC1806, 3 day, 0.3 uM): 101.60 | viability Replicate 3 (HCC1806; HCC1806, 3 day, 0.3 uM): 131.35 | viability Average (HCC1806; HCC1806, 3 day, 1 uM): 117.58 | viability Replicate 1 (HCC1806; HCC1806, 3 day, 1 uM): 111.18 | viability Replicate 2 (HCC1806; HCC1806, 3 day, 1 uM): 107.64 | viability Replicate 3 (HCC1806; HCC1806, 3 day, 1 uM): 133.91 | viability Average (HCC1806; HCC1806, 3 day, 3 uM): 114.75 | viability Replicate 1 (HCC1806; HCC1806, 3 day, 3 uM): 110.32 | viability Replicate 2 (HCC1806; HCC1806, 3 day, 3 uM): 101.81 | viability Replicate 3 (HCC1806; HCC1806, 3 day, 3 uM): 132.12 | viability Average (HCC1806; HCC1806, 3 day, 9.5 uM): 100.22 | viability Replicate 1 (HCC1806; HCC1806, 3 day, 9.5 uM): 94.76 | viability Replicate 2 (HCC1806; HCC1806, 3 day, 9.5 uM): 91.96 | viability Replicate 3 (HCC1806; HCC1806, 3 day, 9.5 uM): 113.95 | viability Average (HCC1806; HCC1806, 3 day, 30 uM): 31.36 | viability Replicate 1 (HCC1806; HCC1806, 3 day, 30 uM): 29.97 | viability Replicate 2 (HCC1806; HCC1806, 3 day, 30 uM): 27.69 | viability Replicate 3 (HCC1806; HCC1806, 3 day, 30 uM): 36.41 | viability Average (HCC1806; HCC1806, 6 day, 0.03 uM): 104.14 | viability Replicate 1 (HCC1806; HCC1806, 6 day, 0.03 uM): 102.41 | viability Replicate 2 (HCC1806; HCC1806, 6 day, 0.03 uM): 102.60 | viability Replicate 3 (HCC1806; HCC1806, 6 day, 0.03 uM): 107.42 | viability Average (HCC1806; HCC1806, 6 day, 0.1 uM): 107.97 | viability Replicate 1 (HCC1806; HCC1806, 6 day, 0.1 uM): 107.96 | viability Replicate 2 (HCC1806; HCC1806, 6 day, 0.1 uM): 108.22 | viability Replicate 3 (HCC1806; HCC1806, 6 day, 0.1 uM): 107.74 | viability Average (HCC1806; HCC1806, 6 day, 0.3 uM): 112.99 | viability Replicate 1 (HCC1806; HCC1806, 6 day, 0.3 uM): 109.14 | viability Replicate 2 (HCC1806; HCC1806, 6 day, 0.3 uM): 116.56 | viability Replicate 3 (HCC1806; HCC1806, 6 day, 0.3 uM): 113.26 | viability Average (HCC1806; HCC1806, 6 day, 1 uM): 115.10 | viability Replicate 1 (HCC1806; HCC1806, 6 day, 1 uM): 111.79 | viability Replicate 2 (HCC1806; HCC1806, 6 day, 1 uM): 117.79 | viability Replicate 3 (HCC1806; HCC1806, 6 day, 1 uM): 115.71 | viability Average (HCC1806; HCC1806, 6 day, 3 uM): 114.65 | viability Replicate 1 (HCC1806; HCC1806, 6 day, 3 uM): 112.70 | viability Replicate 2 (HCC1806; HCC1806, 6 day, 3 uM): 114.15 | viability Replicate 3 (HCC1806; HCC1806, 6 day, 3 uM): 117.09 | viability Average (HCC1806; HCC1806, 6 day, 9.5 uM): 110.91 | viability Replicate 1 (HCC1806; HCC1806, 6 day, 9.5 uM): 107.82 | viability Replicate 2 (HCC1806; HCC1806, 6 day, 9.5 uM): 111.79 | viability Replicate 3 (HCC1806; HCC1806, 6 day, 9.5 uM): 113.11 | viability Average (HCC1806; HCC1806, 6 day, 30 uM): 35.99 | viability Replicate 1 (HCC1806; HCC1806, 6 day, 30 uM): 27.63 | viability Replicate 2 (HCC1806; HCC1806, 6 day, 30 uM): 38.19 | viability Replicate 3 (HCC1806; HCC1806, 6 day, 30 uM): 42.14 | viability Average (HCC1143; 0.01 uM): 99.63 | viability Replicate 1 (HCC1143; 0.01 uM): 94.06 | viability Replicate 2 (HCC1143; 0.01 uM): 105.87 | viability Replicate 3 (HCC1143; 0.01 uM): 98.96 | viability Average (HCC1143; 0.03 uM): 100.04 | viability Replicate 1 (HCC1143; 0.03 uM): 98.98 | viability Replicate 2 (HCC1143; 0.03 uM): 103.01 | viability Replicate 3 (HCC1143; 0.03 uM): 98.14 | viability Average (HCC1143; 0.1 uM): 100.66 | viability Replicate 1 (HCC1143; 0.1 uM): 94.28 | viability Replicate 2 (HCC1143; 0.1 uM): 108.89 | viability Replicate 3 (HCC1143; 0.1 uM): 98.81 | viability Average (HCC1143; 0.3 uM): 101.81 | viability Replicate 1 (HCC1143; 0.3 uM): 94.36 | viability Replicate 2 (HCC1143; 0.3 uM): 110.71 | viability Replicate 3 (HCC1143; 0.3 uM): 100.36 | viability Average (HCC1143; 1 uM): 102.28 | viability Replicate 1 (HCC1143; 1 uM): 95.62 | viability Replicate 2 (HCC1143; 1 uM): 111.25 | viability Replicate 3 (HCC1143; 1 uM): 99.98 | viability Average (HCC1143; 3 uM): 102.58 | viability Replicate 1 (HCC1143; 3 uM): 95.70 | viability Replicate 2 (HCC1143; 3 uM): 110.25 | viability Replicate 3 (HCC1143; 3 uM): 101.79 | viability Average (HCC1143; 9.5 uM): 96.93 | viability Replicate 1 (HCC1143; 9.5 uM): 91.87 | viability Replicate 2 (HCC1143; 9.5 uM): 108.74 | viability Replicate 3 (HCC1143; 9.5 uM): 90.19 | viability Average (HCC1143; 30 uM): 42.44 | viability Replicate 1 (HCC1143; 30 uM): 41.34 | viability Replicate 2 (HCC1143; 30 uM): 45.73 | viability Replicate 3 (HCC1143; 30 uM): 40.25
